# Measured values from patent US20220281848A1, “PYRAZOLE-SUBSTITUTED PYRROLIDINONES AS HERBICIDES” (FMC Corporation, priority 2019, published 2022).
# Experiments:
# plants = experiment: Test D post-emergence, other plants of Tables D2 and D4; assay type: in vivo; settings: for ALOMY damage rating (100=total damage to plant; 0=no damage to plant) / AVEFA damage rating (100=total damage to plant; 0=no damage to plant) / BEAVA damage rating (100=total damage to plant; 0=no damage to plant) / BROTE damage rating (100=total damage to plant; 0=no damage to plant) / BRSNN damage rating (100=total damage to plant; 0=no damage to plant) / CHEAL damage rating (100=total damage to plant; 0=no damage to plant) / GALAP damage rating (100=total damage to plant; 0=no damage to plant) / HORVW damage rating (100=total damage to plant; 0=no damage to plant) / KCHSC damage rating (100=total damage to plant; 0=no damage to plant) / LOLPE damage rating (100=total damage to plant; 0=no damage to plant) / POAAN damage rating (100=total damage to plant; 0=no damage to plant) / POLCO damage rating (100=total damage to plant; 0=no damage to plant) / SINAR damage rating (100=total damage to plant; 0=no damage to plant) / STEME damage rating (100=total damage to plant; 0=no damage to plant) / VERPE damage rating (100=total damage to plant; 0=no damage to plant): "Cereals" Postemergent, evaluated after 15 d; for damage to plant (100=total damage to plant; 0=no damage to plant), ABUTH / damage to plant (100=total damage to plant; 0=no damage to plant), AMARE / damage to plant (100=total damage to plant; 0=no damage to plant), BIDPI / damage to plant (100=total damage to plant; 0=no damage to plant), BRAPL / damage to plant (100=total damage to plant; 0=no damage to plant), CYPES / damage to plant (100=total damage to plant; 0=no damage to plant), DIGSA / damage to plant (100=total damage to plant; 0=no damage to plant), ECHCG / damage to plant (100=total damage to plant; 0=no damage to plant), ELEIN / damage to plant (100=total damage to plant; 0=no damage to plant), EPHHL / damage to plant (100=total damage to plant; 0=no damage to plant), GLXMA / damage to plant (100=total damage to plant; 0=no damage to plant), IPOHE / damage to plant (100=total damage to plant; 0=no damage to plant), ORYSA / damage to plant (100=total damage to plant; 0=no damage to plant), PANMI / damage to plant (100=total damage to plant; 0=no damage to plant), SETFA / damage to plant (100=total damage to plant; 0=no damage to plant), SORVU: post-emergence
# Description: (§1) A formulation containing 50 g/L of the test chemical was prepared by dissolving the active ingredient in a mixture of organic solvents and emulsifier, details of which are provided in the table. This formulation was then mixed with a small, variable amount of acetone to aid dissolution, before addition of a 0.2% v/v aqueous solution of an adjuvant, as the aqueous diluent, to form an aqueous spray solution which contains a predetermined concentration of the active ingredient.
# (§2) This aqueous spray solution was then sprayed onto plants including maize and wheat that had been seed treated with a herbicide safener, after one day's cultivation (for pre-emergence) or after about 12 days' cultivation (for post-emergence). The plants were grown from seeds sown in standard soil, placed in a glasshouse under controlled conditions (at 24/18° C. or 20/16° C., day/night; 16 h light; 65% humidity). After spray application the plants were then grown in a glasshouse under the same conditions and watered twice daily. After 15 d for post-emergence and 20 DAA for pre-emergence the test was evaluated (100=total damage to plant; 0=no damage to plant).
# wheat = experiment: Test D post-emergence, wheat seed treated with a herbicide safener; assay type: in vivo; settings: "Cereals" Postemergent
# Description: as §1, §2
smiles,measurement,setting,value
CN1CC(c2cc(C(F)(F)F)n(C)n2)C(C(=O)Nc2cccc(F)n2)C1=O (racemic) [Compound 24],ALOMY damage rating (100=total damage to plant; 0=no damage to plant),plants; Rates 130,0
same,ALOMY damage rating (100=total damage to plant; 0=no damage to plant),plants; Rates 250,0
same,ALOMY damage rating (100=total damage to plant; 0=no damage to plant),plants; Rates 500,0
same,AVEFA damage rating (100=total damage to plant; 0=no damage to plant),plants; Rates 130,0
same,AVEFA damage rating (100=total damage to plant; 0=no damage to plant),plants; Rates 250,0
same,AVEFA damage rating (100=total damage to plant; 0=no damage to plant),plants; Rates 500,0
same,BEAVA damage rating (100=total damage to plant; 0=no damage to plant),plants; Rates 130,0
same,BEAVA damage rating (100=total damage to plant; 0=no damage to plant),plants; Rates 250,0
same,BEAVA damage rating (100=total damage to plant; 0=no damage to plant),plants; Rates 500,0
same,BROTE damage rating (100=total damage to plant; 0=no damage to plant),plants; Rates 130,0
same,BROTE damage rating (100=total damage to plant; 0=no damage to plant),plants; Rates 250,0
same,BROTE damage rating (100=total damage to plant; 0=no damage to plant),plants; Rates 500,0
same,BRSNN damage rating (100=total damage to plant; 0=no damage to plant),plants; Rates 130,0
same,BRSNN damage rating (100=total damage to plant; 0=no damage to plant),plants; Rates 250,0
same,BRSNN damage rating (100=total damage to plant; 0=no damage to plant),plants; Rates 500,0
same,CHEAL damage rating (100=total damage to plant; 0=no damage to plant),plants; Rates 130,0
same,CHEAL damage rating (100=total damage to plant; 0=no damage to plant),plants; Rates 250,10
same,CHEAL damage rating (100=total damage to plant; 0=no damage to plant),plants; Rates 500,40
same,GALAP damage rating (100=total damage to plant; 0=no damage to plant),plants; Rates 130,0
same,GALAP damage rating (100=total damage to plant; 0=no damage to plant),plants; Rates 250,0
same,GALAP damage rating (100=total damage to plant; 0=no damage to plant),plants; Rates 500,20
same,HORVW damage rating (100=total damage to plant; 0=no damage to plant),plants; Rates 130,0
same,HORVW damage rating (100=total damage to plant; 0=no damage to plant),plants; Rates 250,0
same,HORVW damage rating (100=total damage to plant; 0=no damage to plant),plants; Rates 500,0
same,KCHSC damage rating (100=total damage to plant; 0=no damage to plant),plants; Rates 130,0
same,KCHSC damage rating (100=total damage to plant; 0=no damage to plant),plants; Rates 250,0
same,KCHSC damage rating (100=total damage to plant; 0=no damage to plant),plants; Rates 500,0
same,LOLPE damage rating (100=total damage to plant; 0=no damage to plant),plants; Rates 130,0
same,LOLPE damage rating (100=total damage to plant; 0=no damage to plant),plants; Rates 250,0
same,LOLPE damage rating (100=total damage to plant; 0=no damage to plant),plants; Rates 500,0
same,POAAN damage rating (100=total damage to plant; 0=no damage to plant),plants; Rates 130,0
same,POAAN damage rating (100=total damage to plant; 0=no damage to plant),plants; Rates 250,0
same,POAAN damage rating (100=total damage to plant; 0=no damage to plant),plants; Rates 500,0
same,POLCO damage rating (100=total damage to plant; 0=no damage to plant),plants; Rates 130,0
same,POLCO damage rating (100=total damage to plant; 0=no damage to plant),plants; Rates 250,0
same,POLCO damage rating (100=total damage to plant; 0=no damage to plant),plants; Rates 500,0
same,SINAR damage rating (100=total damage to plant; 0=no damage to plant),plants; Rates 130,0
same,SINAR damage rating (100=total damage to plant; 0=no damage to plant),plants; Rates 250,0
same,SINAR damage rating (100=total damage to plant; 0=no damage to plant),plants; Rates 500,0
same,STEME damage rating (100=total damage to plant; 0=no damage to plant),plants; Rates 130,0
same,STEME damage rating (100=total damage to plant; 0=no damage to plant),plants; Rates 250,0
same,STEME damage rating (100=total damage to plant; 0=no damage to plant),plants; Rates 500,0
same,VERPE damage rating (100=total damage to plant; 0=no damage to plant),plants; Rates 130,0
same,VERPE damage rating (100=total damage to plant; 0=no damage to plant),plants; Rates 250,0
same,VERPE damage rating (100=total damage to plant; 0=no damage to plant),plants; Rates 500,20
same,"damage to plant (100=total damage to plant; 0=no damage to plant), ABUTH","plants; rate 130, evaluated after 15 d",0
same,"damage to plant (100=total damage to plant; 0=no damage to plant), ABUTH","plants; rate 250, evaluated after 15 d",0
same,"damage to plant (100=total damage to plant; 0=no damage to plant), ABUTH","plants; rate 500, evaluated after 15 d",10
same,"damage to plant (100=total damage to plant; 0=no damage to plant), AMARE","plants; rate 130, evaluated after 15 d",0
same,"damage to plant (100=total damage to plant; 0=no damage to plant), AMARE","plants; rate 250, evaluated after 15 d",0
same,"damage to plant (100=total damage to plant; 0=no damage to plant), AMARE","plants; rate 500, evaluated after 15 d",0
same,"damage to plant (100=total damage to plant; 0=no damage to plant), BIDPI","plants; rate 130, evaluated after 15 d",0
same,"damage to plant (100=total damage to plant; 0=no damage to plant), BIDPI","plants; rate 250, evaluated after 15 d",0
same,"damage to plant (100=total damage to plant; 0=no damage to plant), BIDPI","plants; rate 500, evaluated after 15 d",0
same,"damage to plant (100=total damage to plant; 0=no damage to plant), BRAPL","plants; rate 130, evaluated after 15 d",0
same,"damage to plant (100=total damage to plant; 0=no damage to plant), BRAPL","plants; rate 250, evaluated after 15 d",40
same,"damage to plant (100=total damage to plant; 0=no damage to plant), BRAPL","plants; rate 500, evaluated after 15 d",50
same,"damage to plant (100=total damage to plant; 0=no damage to plant), CYPES","plants; rate 130, evaluated after 15 d",0
same,"damage to plant (100=total damage to plant; 0=no damage to plant), CYPES","plants; rate 250, evaluated after 15 d",0
same,"damage to plant (100=total damage to plant; 0=no damage to plant), CYPES","plants; rate 500, evaluated after 15 d",10
same,"damage to plant (100=total damage to plant; 0=no damage to plant), DIGSA","plants; rate 130, evaluated after 15 d",0
same,"damage to plant (100=total damage to plant; 0=no damage to plant), DIGSA","plants; rate 250, evaluated after 15 d",0
same,"damage to plant (100=total damage to plant; 0=no damage to plant), DIGSA","plants; rate 500, evaluated after 15 d",0
same,"damage to plant (100=total damage to plant; 0=no damage to plant), ECHCG","plants; rate 130, evaluated after 15 d",0
same,"damage to plant (100=total damage to plant; 0=no damage to plant), ECHCG","plants; rate 250, evaluated after 15 d",0
same,"damage to plant (100=total damage to plant; 0=no damage to plant), ECHCG","plants; rate 500, evaluated after 15 d",0
same,"damage to plant (100=total damage to plant; 0=no damage to plant), ELEIN","plants; rate 130, evaluated after 15 d",0
same,"damage to plant (100=total damage to plant; 0=no damage to plant), ELEIN","plants; rate 250, evaluated after 15 d",0
same,"damage to plant (100=total damage to plant; 0=no damage to plant), ELEIN","plants; rate 500, evaluated after 15 d",0
same,"damage to plant (100=total damage to plant; 0=no damage to plant), EPHHL","plants; rate 130, evaluated after 15 d",0
same,"damage to plant (100=total damage to plant; 0=no damage to plant), EPHHL","plants; rate 250, evaluated after 15 d",0
same,"damage to plant (100=total damage to plant; 0=no damage to plant), EPHHL","plants; rate 500, evaluated after 15 d",20
same,"damage to plant (100=total damage to plant; 0=no damage to plant), GLXMA","plants; rate 130, evaluated after 15 d",0
same,"damage to plant (100=total damage to plant; 0=no damage to plant), GLXMA","plants; rate 250, evaluated after 15 d",0
same,"damage to plant (100=total damage to plant; 0=no damage to plant), GLXMA","plants; rate 500, evaluated after 15 d",10
same,"damage to plant (100=total damage to plant; 0=no damage to plant), IPOHE","plants; rate 130, evaluated after 15 d",0
same,"damage to plant (100=total damage to plant; 0=no damage to plant), IPOHE","plants; rate 250, evaluated after 15 d",0
same,"damage to plant (100=total damage to plant; 0=no damage to plant), IPOHE","plants; rate 500, evaluated after 15 d",10
same,"damage to plant (100=total damage to plant; 0=no damage to plant), ORYSA","plants; rate 130, evaluated after 15 d",0
same,"damage to plant (100=total damage to plant; 0=no damage to plant), ORYSA","plants; rate 250, evaluated after 15 d",0
same,"damage to plant (100=total damage to plant; 0=no damage to plant), ORYSA","plants; rate 500, evaluated after 15 d",10
same,"damage to plant (100=total damage to plant; 0=no damage to plant), PANMI","plants; rate 130, evaluated after 15 d",0
same,"damage to plant (100=total damage to plant; 0=no damage to plant), PANMI","plants; rate 250, evaluated after 15 d",0
same,"damage to plant (100=total damage to plant; 0=no damage to plant), PANMI","plants; rate 500, evaluated after 15 d",10
same,"damage to plant (100=total damage to plant; 0=no damage to plant), SETFA","plants; rate 130, evaluated after 15 d",0
same,"damage to plant (100=total damage to plant; 0=no damage to plant), SETFA","plants; rate 250, evaluated after 15 d",0
same,"damage to plant (100=total damage to plant; 0=no damage to plant), SETFA","plants; rate 500, evaluated after 15 d",10
same,"damage to plant (100=total damage to plant; 0=no damage to plant), SORVU","plants; rate 130, evaluated after 15 d",0
same,"damage to plant (100=total damage to plant; 0=no damage to plant), SORVU","plants; rate 250, evaluated after 15 d",0
same,"damage to plant (100=total damage to plant; 0=no damage to plant), SORVU","plants; rate 500, evaluated after 15 d",0
same,TRZAW damage rating (100=total damage to plant; 0=no damage to plant),"wheat; Rates 130, evaluated after 15 d",0
same,TRZAW damage rating (100=total damage to plant; 0=no damage to plant),"wheat; Rates 250, evaluated after 15 d",0
same,TRZAW damage rating (100=total damage to plant; 0=no damage to plant),"wheat; Rates 500, evaluated after 15 d",0
